Source: PubChem BioAssay AID1963964 (Molecular Pharmacology Branch, DTP, NCI, 2024)
“And” between values parts separate entries of the source, which are not always exact repeats. Identical values can stand only once.

Test system: 997726-040-R-J2-PDC tumor spheroids, viability
Test: Anticancer human tumor 997726-040-R-J2-PDC patient-derived squamous cell lung carcinoma cell line growth inhibition [PI3K]
Details: spheroids with HUVEC and MSC; for viability, T/C: stronger effect = lower value
Outline: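 Agents were dosed from a top concentration near clinical Cmax (otherwise 10 microM) in half-log decrements, alone or combined with PI3K inhibitors. The spheroids contain tumor cells plus endothelial (HUVEC) and MSC stroma; viability is measured.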

[1] = curve of first compound, second compound 0.0316 µM
[2] = curve of first compound, second compound 0.1 µM
[3] = curve of first compound, second compound 0.316 µM
[4] = curve of first compound, second compound 1 µM
[5] = second compound 0.0316 µM, first compound 0.0316 µM
[6] = second compound 0.0316 µM, first compound 0.1 µM
[7] = second compound 0.1 µM, first compound 0.0316 µM
[8] = second compound 0.1 µM, first compound 0.1 µM
[9] = second compound 0.316 µM, first compound 0.0316 µM
[10] = second compound 0.316 µM, first compound 0.1 µM
[11] = second compound 1 µM, first compound 0.0316 µM
[12] = second compound 1 µM, first compound 0.1 µM
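Also: spheroids exposed to compounds for seven days before readout.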

`CC(C)NCC(C(=O)N1CCN(c2ncnc3c2C(C)CC3O)CC1)c1ccc(Cl)cc1` (stereo not given) + CC(Nc1ncnc2nc[nH]c12)c1cc2cccc(Cl)c2c(=O)n1-c1ccccc1 showed an IC50 [1] of 388 nM, an IC50 [2] of 400 nM and an IC50 [3] of 398 nM. The IC50 [4] was 297 nM, the IC50 (curve of first compound, second compound 3.16 µM) was 278 nM and the IC50 (curve of first compound, second compound 10 µM) was 55.6 nM. It also gave a viability, T/C [5] of 82.7%, a viability, T/C [6] of 74.3% and a viability, T/C (second compound 0.0316 µM, first compound 0.316 µM) of 54.4%. For the same compound, the viability, T/C (second compound 0.0316 µM, first compound 1 µM) was 29.7%, the viability, T/C (second compound 0.0316 µM, first compound 3.16 µM) was 14.6% and the viability, T/C (second compound 0.0316 µM, first compound 10 µM) was 10.8%. The viability, T/C [7] was 79.5%, the viability, T/C [8] was 85.4% and the viability, T/C (second compound 0.1 µM, first compound 0.316 µM) was 50.1%. For the same compound, the viability, T/C (second compound 0.1 µM, first compound 1 µM) was 31.6%, the viability, T/C (second compound 0.1 µM, first compound 3.16 µM) was 12.7% and the viability, T/C (second compound 0.1 µM, first compound 10 µM) was 10.7%. The viability, T/C [9] was 87.1%, the viability, T/C [10] was 87.3% and the viability, T/C (second compound 0.316 µM, first compound 0.316 µM) was 53.1%. For the same compound, the viability, T/C (second compound 0.316 µM, first compound 1 µM) was 27.4%, the viability, T/C (second compound 0.316 µM, first compound 3.16 µM) was 15.5% and the viability, T/C (second compound 0.316 µM, first compound 10 µM) was 9.73%. For the same compound, the viability, T/C [11] was 88.9%, the viability, T/C [12] was 69.2% and the viability, T/C (second compound 1 µM, first compound 0.316 µM) was 48.7%. The viability, T/C (second compound 1 µM, first compound 1 µM) was 32%, the viability, T/C (second compound 1 µM, first compound 3.16 µM) was 15% and the viability, T/C (second compound 1 µM, first compound 10 µM) was 9.4%. For the same compound, the viability, T/C (second compound 3.16 µM, first compound 0.0316 µM) was 80.1%, the viability, T/C (second compound 3.16 µM, first compound 0.1 µM) was 69.6% and the viability, T/C (second compound 3.16 µM, first compound 0.316 µM) was 46.3%. It also gave a viability, T/C (second compound 3.16 µM, first compound 1 µM) of 28.3%, a viability, T/C (second compound 3.16 µM, first compound 3.16 µM) of 15.3% and a viability, T/C (second compound 3.16 µM, first compound 10 µM) of 10.8%. It also gave a viability, T/C (second compound 10 µM, first compound 0.0316 µM) of 54.7%, a viability, T/C (second compound 10 µM, first compound 0.1 µM) of 42.8% and a viability, T/C (second compound 10 µM, first compound 0.316 µM) of 41.8%. It also gave a viability, T/C (second compound 10 µM, first compound 1 µM) of 27.3%, a viability, T/C (second compound 10 µM, first compound 3.16 µM) of 13.7% and a viability, T/C (second compound 10 µM, first compound 10 µM) of 9.38%.

`CCCS(=O)(=O)Nc1ccc(F)c(C(=O)c2c[nH]c3ncc(-c4ccc(Cl)cc4)cc23)c1F` was tested, and the viability, T/C (compound 0.0316 µM) was 103% [middle of 4 runs], the viability, T/C (compound 0.1 µM) was 106% [middle of 4 runs] and the viability, T/C (compound 0.316 µM) was 104% (2×) and 114% and 126%. The viability, T/C (compound 1 µM) was 131% [middle of 4 runs], the viability, T/C (compound 10 µM) was 27.6% [middle of 4 runs] and the IC50 (curve of compound) was 7120 nM and 7360 nM and 7320 nM.

For `CC(=O)c1c(C)c2cnc(Nc3ccc(N4CCNCC4)cn3)nc2n(C2CCCC2)c1=O` + COc1c(OCCCN2CCOCC2)ccc2c3n(c(=NC(=O)c4cnc(N)nc4)nc12)CCN3, the IC50 (curve of first compound, second compound 0.00316 µM) was > 100 nM, the IC50 (curve of first compound, second compound 0.01 µM) was 15.6 nM and the IC50 [1] was < 0.316 nM. The IC50 [2] was < 0.316 nM, the IC50 [3] was < 0.316 nM and the IC50 [4] was < 0.316 nM. The viability, T/C (second compound 0.00316 µM, first compound 0.000316 µM) was 73%, the viability, T/C (second compound 0.00316 µM, first compound 0.001 µM) was 77.6% and the viability, T/C (second compound 0.00316 µM, first compound 0.00316 µM) was 69.8%. For the same compound, the viability, T/C (second compound 0.00316 µM, first compound 0.01 µM) was 75%, the viability, T/C (second compound 0.00316 µM, first compound 0.0316 µM) was 60.1% and the viability, T/C (second compound 0.00316 µM, first compound 0.1 µM) was 52.4%. The viability, T/C (second compound 0.01 µM, first compound 0.000316 µM) was 62.1%, the viability, T/C (second compound 0.01 µM, first compound 0.001 µM) was 60.9% and the viability, T/C (second compound 0.01 µM, first compound 0.00316 µM) was 53.8%. It also gave a viability, T/C (second compound 0.01 µM, first compound 0.01 µM) of 55.8%, a viability, T/C (second compound 0.01 µM, first compound 0.0316 µM) of 44.4% and a viability, T/C (second compound 0.01 µM, first compound 0.1 µM) of 39.2%. It also gave a viability, T/C (second compound 0.0316 µM, first compound 0.000316 µM) of 32.2%, a viability, T/C (second compound 0.0316 µM, first compound 0.001 µM) of 42.1% and a viability, T/C (second compound 0.0316 µM, first compound 0.00316 µM) of 35.3%. For the same compound, the viability, T/C (second compound 0.0316 µM, first compound 0.01 µM) was 34.1%, the viability, T/C [5] was 28.1% and the viability, T/C [6] was 25.7%. For the same compound, the viability, T/C (second compound 0.1 µM, first compound 0.000316 µM) was 20.6%, the viability, T/C (second compound 0.1 µM, first compound 0.001 µM) was 23.3% and the viability, T/C (second compound 0.1 µM, first compound 0.00316 µM) was 23.9%. For the same compound, the viability, T/C (second compound 0.1 µM, first compound 0.01 µM) was 21%, the viability, T/C [7] was 18.7% and the viability, T/C [8] was 17.1%. For the same compound, the viability, T/C (second compound 0.316 µM, first compound 0.000316 µM) was 5.23%, the viability, T/C (second compound 0.316 µM, first compound 0.001 µM) was 5.65% and the viability, T/C (second compound 0.316 µM, first compound 0.00316 µM) was 6.03%. It also gave a viability, T/C (second compound 0.316 µM, first compound 0.01 µM) of 5.28%, a viability, T/C [9] of 5.14% and a viability, T/C [10] of 3.76%. For the same compound, the viability, T/C (second compound 1 µM, first compound 0.000316 µM) was 1.5%, the viability, T/C (second compound 1 µM, first compound 0.001 µM) was 1.26% and the viability, T/C (second compound 1 µM, first compound 0.00316 µM) was 1.01%. It also gave a viability, T/C (second compound 1 µM, first compound 0.01 µM) of 1.2%, a viability, T/C [11] of 1.19% and a viability, T/C [12] of 1.06%.
